Laboratory results reported in PubChem BioAssay (NCI).
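Growth conditions: 96-well plates. Treatment: test compound, 48 hours, 5 concentrations. Analysis: linear interpolation between bracketing concentrations; unreached endpoints set to highest concentration. At the TGI there is no net growth.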

What was measured:
Assay in all cases: NCI tumour cell line growth inhibition, 48 h
RXF-631 renal = tested on: RXF-631 renal
T-47D breast = tested on: T-47D breast
XF 498 CNS = tested on: XF 498 CNS
P388 leukemia = tested on: P388 leukemia
P388/ADR leukemia = tested on: P388/ADR leukemia
SN12K1 renal = tested on: SN12K1 renal

Question: Which TGI (RXF-631 renal) does the source give for NC(N)=NCCCC(NCc1c2ccccc2[n+]([O-])c2ccccc12)C(=O)O (stereo unspecified) here?
Answer: Its TGI is over 100 µM.

Question: For NS(=O)(=O)c1ccc(N=Nc2nc3[nH]cnc(=S)c3[nH]2)cc1, which TGI (T-47D breast) is on record?
Answer: Its TGI is over 25.3 µM.

Question: How did the TGI (T-47D breast) turn out when C[N+]1(CCCC[N+]2(C)CCCCCCC2)CCCCCCC1 was run?
Answer: The TGI was over 100 µM.

Question: With Cc1n(-c2ccccc2)c2c([n+]1Cc1ccc([N+](=O)[O-])cc1)C(=O)c1ccccc1C2=O as the molecule, how does the TGI (T-47D breast) read?
Answer: Its TGI is 3.43 µM.

Question: With CCN(CC)CCOCC1CCCN2CCCCC12 (stereo unspecified) as the molecule, how does the TGI (T-47D breast) read?
Answer: Its TGI is over 100 µM.

Question: Which TGI (XF 498 CNS) does the source give for COc1cc(O)c2c(c1O)C(=O)c1cc(C)ncc1C2=O here?
Answer: The TGI was over 50 µM.

Question: With CCCCCCCSCC1OC(n2cnc3c(N)ncnc32)C(O)C1O (stereo unspecified) as the molecule, how does the TGI (XF 498 CNS) read?
Answer: Its TGI is 97.6 µM.

Question: Which TGI (T-47D breast) does the source give for Nc1nc(Sc2ccc([N+](=O)[O-])cn2)c2[nH]cnc2n1 here?
Answer: Its TGI is over 42.3 µM.

Question: What does the source list for Cc1n(CC(C)C)c2c([n+]1CC(=O)c1ccc([N+](=O)[O-])cc1)C(=O)c1ccccc1C2=O?
Answer: TGI (P388 leukemia): 0.563 µM; TGI (P388/ADR leukemia): 61.3 µM; TGI (SN12K1 renal): 0.279 µM
